Measurements taken from patent US20140357633A1, “COMPOUNDS FOR INHIBITING THE INTERACTION OF BCL2 WITH BINDING PARTNERS” (NOVARTIS AG, priority 2011, published 2014).

Tests used:
[1] = target: BCL-2 (binding to BAK peptide) (Homo sapiens, UniProt P10415); assay: SPR (Biacore) solution inhibition assay, BCL-2 binding to immobilized BAK peptide; details: biotinylated BAK peptide surface, 56 nM BCL-2, 25° C.; range = high and low IC50 values from multiple experiments; read-out: BCL2_SPR IC50 BAK
Description: (§1) The present method includes utility of a Surface plasmon resonance (SPR)-based biosensor (Biacore™′ GE Healthcare, Uppsala, Sweden) to characterize BCL-2 inhibitors.
(§2) Biacore™ utilizes the phenomenon of surface plasmon resonance (SPR) to detect and measure binding interactions. In a typical Biacore experiment, one of the interacting molecules (ligand) is immobilized on a flexible dextran matrix while the interacting partner (analyte) is allowed to flow across that surface. A binding interaction results in an increase in mass on the sensor surface and a corresponding direct change in the refractive index of the medium in the vicinity of the sensor surface. Changes in refractive index or signal are recorded in resonance units (R.U.) Signal changes due to association and dissociation of complexes are monitored in a non-invasive manner, continuously and in real-time, the results of which are reported in the form of a sensorgram.
(§3) The SPR assay is configured to examine solution inhibition of BCL-2 binding to peptide derivatized sensor surfaces to generate IC50 values as a measure of inhibitor potency.
(§4) Biacore™ A100 (GE Healthcare, Uppsala, Sweden) was used to conduct all experiments reported herein. Sensor surface preparation and all interaction analyses experiments were performed at 25° C. Reagents were purchased from GE Healthcare. Running buffer containing 10 mM Hepes, pH7.4, 150 mM sodium chloride, 1.25 mM Dithiothreitol, 3% Dimethyl sulfoxide and 0.05% polysorbate 20 were utilized throughout all analyses.
(§5) Biotinylated BAK, BAD and NOXA peptides were diluted to 10 nM in running buffer and captured onto a sensor surface pre-derivatized with streptavidin (sensor chip SA) to peptide surface densities in the range 50-100 R.U. Peptide captured surfaces were blocked with 500 μM PEO2-Biotin.
(§6) Interaction analyses were performed by first equilibrating each sample within a 6 point three fold compound dilution series in the range 16 μM to […] with 56 nM BCL-2 for one hour during instrument start-up procedures. Protein compound mixtures were then injected over each peptide surface in parallel for 60 seconds at a flow-rate of 30 μL/min. 56 nM BCL-2 control samples were also prepared and run at regular intervals during the assay. Surface regeneration was performed at the end of each analysis cycle by two 30 second injections of 10 mM Glycine, pH 2.5, 1M Sodium Chloride, 0.05% polysorbate 20. Samples and control compound samples were run in duplicate and controls are also run at regular intervals during the assay to monitor surface and assay performance.
(§7) Data analyses are carried out using Biacore™ A100 evaluation software v1.1 to validate assay quality. Binding level report points were used relative to BCL-2 control samples to calculate % inhibition values for each compound protein mixture. […] The range of data shown in table 1 represents the high and low IC50 values obtained from multiple experiments.

[2] = target: BCL-2 (binding to BAD peptide) (Homo sapiens, UniProt P10415); assay: SPR (Biacore) solution inhibition assay, BCL-2 binding to immobilized BAD peptide; details: biotinylated BAD peptide surface, 56 nM BCL-2, 25° C.; range = high and low IC50 values from multiple experiments; read-out: BCL2_SPR IC50 BAD
Description: as §1, §2, §3, §4, §5, §6, §7

Sequence of BCL-2 (binding to BAD peptide) (P10415 whole entry): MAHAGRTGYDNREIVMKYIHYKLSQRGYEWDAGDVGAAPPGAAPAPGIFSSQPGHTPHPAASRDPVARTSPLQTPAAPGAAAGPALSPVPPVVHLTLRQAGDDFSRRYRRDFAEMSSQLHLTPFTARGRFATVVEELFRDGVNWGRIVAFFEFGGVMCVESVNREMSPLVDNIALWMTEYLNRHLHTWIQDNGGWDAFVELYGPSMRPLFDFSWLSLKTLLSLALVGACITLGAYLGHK
Sequence of BCL-2 (binding to BAK peptide) (P10415 whole entry): as above

| SMILES | IC50 [1] [nM] | IC50 [2] [nM] |
| --- | --- | --- |
| CCCCN(CCCC)C(=O)c1cc(C)n(-c2ccc(NC(=O)c3cccn(Cc4ccccc4)c3=O)cc2C(=O)N2Cc3ccccc3C[C@H]2CO)n1 [Example 116] | 731 to 786 | 839 to 856 |
| CCCCN(CCCC)C(=O)c1cc(C)n(-c2ccc(NC(=O)CC(CC(=O)O)c3ccccc3)cc2C(=O)N2Cc3ccccc3C[C@H]2CO)n1 (some centres unmarked) [Example 16] | 95.7 to 103 | 119 to 126 |
| CCCCN(CCCC)C(=O)c1cc(C)n(-c2ccc(NC(=O)CCc3ccccc3)cc2C(=O)N2Cc3ccccc3C[C@H]2CO)n1 [Example 8] | 191 to 287 | 198 to 260 |
| CCCCN(CCCC)C(=O)c1cc(C)n(-c2ccc(NC(=O)C3(c4ccccc4)CC3)cc2C(=O)N2Cc3ccccc3C[C@H]2CO)n1 [Example 30] | 204 to 240 | 252 to 267 |
| CCCCN(CCCC)C(=O)c1cc(C)n(-c2ccc(NC(=O)c3cc4c(OC)c(OC)ccc4[nH]3)cc2C(=O)N2Cc3ccccc3C[C@H]2CO)n1 [Example 149] | 161 to 162 | 142 to 164 |
| CCCCN(CCCC)C(=O)c1cc(C)n(-c2ccc(NC(=O)Cc3cccc(F)c3)cc2C(=O)C2Cc3ccccc3C[C@H]2CO)n1 (some centres unmarked) [Example 75] | 53.2 to 59 | 66.6 to 70 |
| CCCCN(CCCC)C(=O)c1cc(C)n(-c2ccc(NC(=O)c3cc(OC)ccc3O)cc2C(=O)N2Cc3ccccc3C[C@H]2CO)n1 [Example 153] | 393 to 448 | 438 to 511 |
| CCCCN(CCCC)C(=O)c1cc(C)n(-c2ccc(NC(=O)c3[nH]c4ccccc4c3-c3ccccc3)cc2C(=O)N2Cc3ccccc3C[C@H]2CO)n1 [Example 148] | 595 to 598 | 619 to 638 |
| CCCCN(CCCC)C(=O)c1cc(C)n(-c2ccc(NC(=O)CCCOCc3ccccc3)cc2C(=O)N2Cc3ccccc3C[C@H]2CO)n1 [Example 133] | 310 to 360 | 410 to 438 |
| CCCCN(CCCC)C(=O)c1cc(C)n(-c2ccc(NC(=O)c3cccnc3Nc3cccc(C(F)(F)F)c3)cc2C(=O)N2Cc3ccccc3C[C@H]2CO)n1 [Example 150] | 597 to 598 | 431 to 444 |
| CCCCN(CCCC)C(=O)c1cc(C)n(-c2ccc(NC(=O)OC)cc2C(=O)N2Cc3ccccc3C[C@H]2CO)n1 [Example 12] | 567 to 575 | 619 to 892 |
| CCCCN(CCCC)C(=O)c1cc(C)n(-c2ccc(NC(=O)CCSc3ccc4ccccc4c3)cc2C(=O)N2Cc3ccccc3C[C@H]2CO)n1 [Example 64] | 112 to 133 | 138 to 149 |
| CCCCN(CCCC)C(=O)c1cc(C)n(-c2ccc(NC(=O)C(CC(=O)N(C)C)c3ccccc3)cc2C(=O)N2Cc3ccccc3C[C@H]2CO)n1 (some centres unmarked) [Example 36] | 111 to 144 | – |
| CCCCN(CCCC)C(=O)c1cc(C)n(-c2ccc(NC(=O)OCC(C)C)cc2C(=O)N2Cc3ccccc3C[C@H]2CO)n1 [Example 9] | 394 to 452 | 499 to 606 |
| CCCCN(CCCC)C(=O)c1cc(C)n(-c2ccc(NC(=O)C(Cc3ccccc3)C(=O)O)cc2C(=O)N2Cc3ccccc3C[C@H]2CO)n1 (some centres unmarked) [Example 25] | 63.4 to 72.2 | 67.6 to 67.8 |
| CCCCN(CCCC)C(=O)c1cc(C)n(-c2ccc(NC(=O)c3c(C)n(C)n(-c4ccccc4)c3=O)cc2C(=O)N2Cc3ccccc3C[C@H]2CO)n1 [Example 73] | 58.7 to 82.9 | 74.1 to 100 |
| CCCCN(CCCC)C(=O)c1cc(C)n(-c2ccc(NC(=O)C3CC(=O)N(Cc4ccc(F)cc4)C3)cc2C(=O)N2Cc3ccccc3C[C@H]2CO)n1 (some centres unmarked) [Example 50] | 554 to 643 | 702 to 723 |
| CCCCN(CCCC)C(=O)c1cc(C)n(-c2ccc(NC(=O)Cc3cccc(C#N)c3)cc2C(=O)N2Cc3ccccc3C[C@H]2CO)n1 [Example 160] | 180 to 193 | 229 to 238 |
| CCCCN(CCCC)C(=O)c1cc(C)n(-c2ccc(NC(=O)c3sccc3C)cc2C(=O)N2Cc3ccccc3C[C@H]2CO)n1 [Example 81] | 1040 to 1490 | 1420 to 1460 |
| CCCCN(CCCC)C(=O)c1cc(C)n(-c2ccc(NC(=O)c3cc(C(C)C)nn3CC)cc2C(=O)N2Cc3ccccc3C[C@H]2CO)n1 [Example 85] | 741 to 784 | 923 to 932 |

| SMILES | IC50 [1] [nM] | IC50 [2] [nM] |
| --- | --- | --- |
| CCCCN(CCCC)C(=O)c1cc(C)n(-c2ccc(NC(=O)Cc3cccc4ccccc34)cc2C(=O)N2Cc3ccccc3C[C@H]2CO)n1 [Example 3, (S)—N,N-dibutyl-1-(2-(3-(hydroxymethyl)-1,2,3,4-tetrahydroisoquinoline-2-carbonyl)-4-(2-(naphthalen-1-yl)acetamido)phenyl)-5-methyl-1H-pyrazole-3-carboxamide] | 44.4 to 52.4 | 48.9 to 58 |
| CCCCN(CCCC)C(=O)c1cc(C)n(-c2ccc(NC(=O)c3ccc(COC)o3)cc2C(=O)N2Cc3ccccc3C[C@H]2CO)n1 [Example 142] | 935 to 1120 | 1130 to 1300 |
| CCCCN(CCCC)C(=O)c1cc(C)n(-c2ccc(NC(=O)C(CCO)c3ccccc3)cc2C(=O)N2Cc3ccccc3C[C@H]2CO)n1 (some centres unmarked) [Example 105] | 89.4 to 94.3 | 114 to 119 |
| CCCCC(CCCC)C(=O)c1cc(C)n(-c2ccc(NC(=O)COc3ccc(N4CCCC4=O)cc3)cc2C(=O)N2Cc3ccccc3C[C@H]2CO)n1 [Example 48] | 581 to 600 | 846 to 870 |
| CCCCN(CCCC)C(=O)c1cc(C)n(-c2ccc(NC(=O)c3cn(C)nc3C(F)(F)F)cc2C(=O)N2Cc3ccccc3C[C@H]2CO)n1 [Example 155] | 729 to 935 | 778 to 972 |
| CCCCN(CCCC)C(=O)c1cc(C)n(-c2ccc(NC(=O)Cc3ccc(OC)c(C(F)(F)F)c3)cc2C(=O)N2Cc3ccccc3C[C@H]2CO)n1 [Example 78] | 73.6 to 83.8 | 99.9 to 103 |
| CCCCN(CCCC)C(=O)c1cc(C)n(-c2ccc(NC(=O)C(OC)c3ccccc3)cc2C(=O)N2Cc3ccccc3C[C@H]2CO)n1 (some centres unmarked) [Example 72] | 48.5 to 49.6 | 56.8 to 58.8 |
| CCCCN(CCCC)C(=O)c1cc(C)n(-c2ccc(NC(=O)Cc3c(C)[nH]c4c(F)cccc34)cc2C(=O)N2Cc3ccccc3C[C@H]2CO)n1 [Example 63] | 58.3 to 61.2 | 67.4 to 76.1 |
| CCCCN(CCCC)C(=O)c1cc(C)n(-c2ccc(NC(=O)Cc3ccccc3Cl)cc2C(=O)N2Cc3ccccc3C[C@H]2CO)n1 [Example 139] | 192 to 194 | 276 to 287 |
| CCCCN(CCCC)C(=O)c1cc(C)n(-c2ccc(NC(=O)CC3CCCCC3)cc2C(=O)N2Cc3ccccc3C[C@H]2CO)n1 [Example 28] | 291 to 325 | 264 to 296 |
| CCCCN(CCCC)C(=O)c1cc(C)n(-c2ccc(NC(=O)Cc3cccc(OC)c3)cc2C(=O)N2Cc3ccccc3C[C@H]2CO)n1 [Example 69] | 67.3 to 73.9 | 91.3 to 101 |
| CCCCN(CCCC)C(=O)c1cc(C)n(-c2ccc(NC(=O)c3csc(-c4cccc(Cl)c4Cl)n3)cc2C(=O)N2Cc3ccccc3C[C@H]2CO)n1 [Example 144] | 1260 to 1350 | 2630 to 2750 |
| CCCCN(CCCC)C(=O)c1cc(C)n(-c2ccc(NC(=O)c3cn4ccccc4n3)cc2C(=O)N2Cc3ccccc3C[C@H]2CO)n1 [Example 58] | 204 to 205 | 249 to 282 |
| CCCCN(CCCC)C(=O)c1cc(C)n(-c2ccc(NC(=O)c3nn(-c4ccccc4)c(=O)cc3O)cc2C(=O)N2Cc3ccccc3C[C@H]2CO)n1 [Example 94] | 30.7 to 31.1 | 25.7 to 31.7 |
| CCCCN(CCCC)C(=O)c1cc(C)n(-c2ccc(NC(=O)C(C)CC(=O)O)cc2C(=O)N2Cc3ccccc3C[C@H]2CO)n1 (some centres unmarked) [Example 100] | 127 to 129 | 172 to 174 |
| CCCCN(CCCC)C(=O)c1cc(C)n(-c2ccc(NC(=O)c3cc(SC)ccc3Cl)cc2C(=O)N2Cc3ccccc3C[C@H]2CO)n1 [Example 89] | 222 to 231 | 282 to 288 |
| CCCCN(CCCC)C(=O)c1cc(C)n(-c2ccc(NC(=O)c3oc(-c4ccccc4)nc3C)cc2C(=O)N2Cc3ccccc3C[C@H]2CO)n1 [Example 46] | 692 to 840 | 628 to 760 |
| CCCCN(CCCC)C(=O)c1cc(C)n(-c2ccc(NC(=O)C(CCNC(C)=O)c3ccccc3)cc2C(=O)C2Cc3ccccc3C[C@H]2CO)n1 (some centres unmarked) [Example 74] | 80.8 to 81.4 | 95.1 to 96 |
| CCCCN(CCCC)C(=O)c1cc(C)n(-c2ccc(NC(=O)C(C)C)cc2C(=O)N2Cc3ccccc3C[C@H]2CO)n1 [Example 163] | 481 to 495 | – |
| CCCCN(CCCC)C(=O)c1cc(C)n(-c2ccc(NC(=O)c3ccc(Cl)cc3I)cc2C(=O)N2Cc3ccccc3C[C@H]2CO)n1 [Example 82] | – | 1330 to 1470 |
